From patent US12466835B1, “Solid forms of macrocyclic compounds, salts and formulations thereof, and methods of preparing and using the same” (Kura Oncology, Inc., priority 2023, dated 2025)
Values after ≈ are worked out from the molar mass of the structure shown.

Legend:
Type in all cases: physicochemical
[1] = Solubility testing of solid forms in water, SGF, FaSSIF and FeSSIF media
Description: About 15 mg of test material was weighed into a sample vial and then 3.0 mL of water, simulated gastric fluid (SGF), fasted state simulated intestinali fluid (FaSSIF), or fed state simulated intestinal fluid (FeSSIF) media was added. The resulting suspensions were shaken at 37° C. for up to 24 hours. At 0.5, 2, and 24 hours, suspensions were filtered, and test material concentrations in the filtrates were analyzed by HPLC. Residual solids were collected for analysis.

[2] = Four-week excipient compatibility study under accelerated stress conditions; conditions: four weeks, 40° C./75% relative humidity and 60° C. accelerated stress conditions
[3] = Stability testing of blended samples exposed to high temperature and/or humidity for four weeks
Text: Compound 1, microcrystalline cellulose, D-mannitol, croscarmellose sodium, and magnesium stearate were blended using standard methods. Results from stability testing from exposure of blended samples to high temperature and/or humidity for four weeks are provided in Table 8.

[4] = Powder properties of Form 1 (bulk density, flowability)
Text: Use of a glidant, disintegrant, and lubricant allowed for acceptable tableting and disintegration characteristics.

[5] = FaSSIF, pH of media 6.5, 37° C.
[6] = FeSSIF, pH of media 5.0, 37° C.
[7] = FaSSIF, pH of media 6.5, 37° C., listed as Free base (Form 1)
[8] = FeSSIF, pH of media 5.0, 37° C., listed as Free base (Form 1)
[9] = SGF, pH of media 1.2, 37° C., listed as Free base (Form 1)
[10] = Water, 37° C., listed as Free base (Form 1)
[11] = FaSSIF, pH of media 6.5, 37° C., listed as Fumarate (Form 8)
[12] = FeSSIF, pH of media 5.0, 37° C., listed as Fumarate (Form 8)
[13] = SGF, pH of media 1.2, 37° C., listed as Fumarate (Form 8)
[14] = Water, 37° C., listed as Fumarate (Form 8)
[15] = SGF, pH of media 1.2, 37° C., listed as 1-Hydroxy-2-naphthoate (Form 13)
[16] = Water, 37° C., listed as 1-Hydroxy-2-naphthoate (Form 13)

Cn1cncc1[C@@]1(N)c2ccc(C#N)c(c2)COc2cccc(c2)-c2cc(C#N)nc3ccc1cc23 [Amorphous free base, (S)-3-amino-3-(1-methyl-1H-imidazol-5-yl)-6-oxa-2(4,6)-quinolina-1,4(1,3)-dibenzenacyclohexaphane-2^2,4^4-dicarbonitrile]
Solubility (mg/mL) 2 h [1, 5]: 0.085 mg/mL (≈ 181 µM)
Solubility (mg/mL) 24 h [1, 5]: 0.09 mg/mL (≈ 192 µM)
Solubility (mg/mL) 2 h [1, 6]: 1.22 mg/mL (≈ 2600 µM)
Solubility (mg/mL) 24 h [1, 6]: 1.29 mg/mL (≈ 2750 µM)
Solubility (mg/mL) 2 h ([1]; SGF, pH of media 1.2, 37° C.): ~5 mg/mL (≈ 10700 µM)
Solubility (mg/mL) 24 h ([1]; SGF, pH of media 1.2, 37° C.): ~5 mg/mL (≈ 10700 µM)
Solubility (mg/mL) 2 h ([1]; Water, 37° C.): 0.002 mg/mL (≈ 4.27 µM)
Solubility (mg/mL) 24 h ([1]; Water, 37° C.): 0.0009 mg/mL (≈ 1.92 µM)

Cn1cncc1[C@@]1(N)c2ccc(C#N)c(c2)COc2cccc(c2)-c2cc(C#N)nc3ccc1cc23 [Compound 1, (S)-3-amino-3-(1-methyl-1H-imidazol-5-yl)-6-oxa-2(4,6)-quinolina-1,4(1,3)-dibenzenacyclohexaphane-2^2,4^4-dicarbonitrile]
Compatibility with Tablet Formulation 1 excipients [2]: no incompatibility
% Purity 60° C. [3]: 99.35%

Cn1cncc1[C@@]1(N)c2ccc(C#N)c(c2)COc2cccc(c2)-c2cc(C#N)nc3ccc1cc23 [Form 1, (S)-3-amino-3-(1-methyl-1H-imidazol-5-yl)-6-oxa-2(4,6)-quinolina-1,4(1,3)-dibenzenacyclohexaphane-2^2,4^4-dicarbonitrile]
Solubility (mg/mL) 2 h [1, 7]: 0.0066 mg/mL (≈ 14.1 µM)
Solubility (mg/mL) 24 h [1, 7]: 0.011 mg/mL (≈ 23.5 µM)
Solubility (mg/mL) 2 h [1, 6]: ~0.31 mg/mL (≈ 662 µM)
Solubility (mg/mL) 2 h [1, 8]: 0.31 mg/mL (≈ 662 µM)
Solubility (mg/mL) 24 h [1, 6]: ~0.33 mg/mL (≈ 704 µM)
Solubility (mg/mL) 24 h [1, 8]: 0.33 mg/mL (≈ 704 µM)
Solubility (mg/mL) 2 h ([1]; SGF, pH of media 1.2, 37° C.): ~5.04 mg/mL (≈ 10800 µM)
Solubility (mg/mL) 2 h [1, 9]: 5.04 mg/mL (≈ 10800 µM)
Solubility (mg/mL) 24 h ([1]; SGF, pH of media 1.2, 37° C.): ~3.67 mg/mL (≈ 7830 µM)
Solubility (mg/mL) 24 h [1, 9]: 3.67 mg/mL (≈ 7830 µM)
Solubility (mg/mL) 2 h [1, 10]: <LOD
Solubility (mg/mL) 24 h [1, 10]: <LOD
bulk density [4]: about 0.2 g/mL

Cn1cncc1[C@@]1(N)c2ccc(C#N)c(c2)COc2cccc(c2)-c2cc(C#N)nc3ccc1cc23 [Form 8, (S)-3-amino-3-(1-methyl-1H-imidazol-5-yl)-6-oxa-2(4,6)-quinolina-1,4(1,3)-dibenzenacyclohexaphane-2^2,4^4-dicarbonitrile]
Solubility (mg/mL) 2 h [1, 11]: 0.16 mg/mL (≈ 342 µM)
Solubility (mg/mL) 24 h [1, 11]: 0.45 mg/mL (≈ 960 µM)
Solubility (mg/mL) 2 h [1, 6]: ~1.26 mg/mL (≈ 2690 µM)
Solubility (mg/mL) 2 h [1, 12]: 1.26 mg/mL (≈ 2690 µM)
Solubility (mg/mL) 24 h [1, 6]: ~1.15 mg/mL (≈ 2450 µM)
Solubility (mg/mL) 24 h [1, 12]: 1.15 mg/mL (≈ 2450 µM)
Solubility (mg/mL) 2 h ([1]; SGF, pH of media 1.2, 37° C.): ≥ 5 mg/mL
Solubility (mg/mL) 2 h [1, 13]: ~5 mg/mL (≈ 10700 µM)
Solubility (mg/mL) 24 h ([1]; SGF, pH of media 1.2, 37° C.): ≥ 5 mg/mL
Solubility (mg/mL) 24 h [1, 13]: ~5 mg/mL (≈ 10700 µM)
Solubility (mg/mL) 2 h [1, 14]: 0.43 mg/mL (≈ 918 µM)
Solubility (mg/mL) 24 h [1, 14]: 0.34 mg/mL (≈ 726 µM)

Cn1cncc1[C@@]1(N)c2ccc(C#N)c(c2)COc2cccc(c2)-c2cc(C#N)nc3ccc1cc23 [Form 13, (S)-3-amino-3-(1-methyl-1H-imidazol-5-yl)-6-oxa-2(4,6)-quinolina-1,4(1,3)-dibenzenacyclohexaphane-2^2,4^4-dicarbonitrile]
Solubility (mg/mL) 2 h ([1]; FaSSIF, pH of media 6.5, 37° C., listed as 1-Hydroxy-2-naphthoate (Form 13)): 0.086 mg/mL (≈ 184 µM)
Solubility (mg/mL) 2 h [1, 6]: ~0.82 mg/mL (≈ 1750 µM)
Solubility (mg/mL) 2 h ([1]; FeSSIF, pH of media 5.0, 37° C., listed as 1-Hydroxy-2-naphthoate (Form 13)): 0.82 mg/mL (≈ 1750 µM)
Solubility (mg/mL) 2 h ([1]; SGF, pH of media 1.2, 37° C.): ~4.05 mg/mL (≈ 8640 µM)
Solubility (mg/mL) 2 h [1, 15]: 4.05 mg/mL (≈ 8640 µM)
Solubility (mg/mL) 24 h ([1]; SGF, pH of media 1.2, 37° C.): ~4.12 mg/mL (≈ 8790 µM)
Solubility (mg/mL) 24 h [1, 15]: 4.12 mg/mL (≈ 8790 µM)
Solubility (mg/mL) 2 h [1, 16]: 0.020 mg/mL (≈ 42.7 µM)
Solubility (mg/mL) 24 h [1, 16]: 0.013 mg/mL (≈ 27.7 µM)
